The nature of test [1]: Antiinflammatory activity in human neutrophils assessed as inhibition of fMLP/CB-induced elastase release. It counts as functional, cell-based. To be noted: Neutrophil.
Test [2] can be described thus: Antiinflammatory activity in human neutrophils assessed as inhibition of fMLP/CB-indcued superoxide anion production. It counts as functional, cell-based. To be noted: Neutrophil.
In the next test the test system is A549. The experiment in a line: Cytotoxicity against human A549 cells. It is filed as functional, cell-based.
For a further test, the system named is DU-145. In words: Cytotoxicity against human DU145 cells. It counts as functional, cell-based.
A further test relates to KB. In words: Cytotoxicity against human KB cells. It is filed as functional, cell-based.
Test [3] in a line: Cytotoxicity against human KBVIN cells. It is filed as functional, cell-based.
A further test relates to HepG2. In words: Cytotoxicity against human HepG2 cells. It counts as functional, cell-based.
Test [4] can be described thus: Cytotoxicity against human Hep3B cells. It is filed as functional, cell-based, Hep 3B2.
Another test has as its system Neutrophil. The experiment in a line: Ratio of LY294002 IC50 to compound IC50 for inhibition of fMLP/CB-indcued elastase release in human neutrophils. It is filed as functional.

As a reminder, the IC50 is the concentration needed to halve the response being measured.

Where only a bound is given, the exact number is not on record here.

As to `COC1=CC(=O)c2cc(-c3ccc(OC)c(O)c3)c3cc(O)c(OC)cc3c2C1=O` [PTEROLINUS K], the IC50 in test [1] is 4.24 µM; in test [2], 0.99 µM; with A549, above 10 µg/mL; with DU-145, above 10 µg/mL; in the test on KB, above 10 µg/mL; in test [3], above 10 µg/mL. Besides, the IC50 is above 10 µg/mL in the test on HepG2 and 10.9 µM in test [4].
In the case of `COc1cc(O)c(C(=O)c2ccccc2)cc1O` [CEAROIN], the IC50 in the test on A549 was above 10 µg/mL; in the test with DU-145, above 10 µg/mL; in the test with KB, 35.3 µM; in test [3] it was 32.2 µM.
`COc1cccc2c1C(=O)c1c(O)c3c(c(O)c1C2=O)C[C@@](O)(C(=O)CO)C[C@@H]3O[C@H]1C[C@H](N)[C@H](O)[C@H](C)O1` [DOXORUBICIN]: the concentration for half-maximal inhibition (IC50) in the test on HepG2 came to 1.29 µM; in [4] it was 1.57 µM.
As for `COc1ccc(C(=O)/C=C/c2cc(O)c(OC)cc2O)cc1O` [PTEROLINUS L], the IC50 in [1] came out at 0.95 µM; with A549, 21.9 µM; in the test on DU-145, 29.8 µM; with KB, 17.2 µM; in test [3], 22.4 µM; with HepG2, 20.4 µM. This compound showed an IC50 in [4] of 20.9 µM. Besides, in the test on Neutrophil, the “Ratio IC50” value is given as 6.
In the case of `COc1cc2oc(=O)cc(-c3ccccc3)c2cc1O` [DALBERGIN], the IC50 (in the test on A549; with DU-145; in the test on KB; in test [3]) was above 10 µg/mL throughout.
For `O=c1cc(N2CCOCC2)oc2c(-c3ccccc3)cccc12` [LY-294002], the IC50 came out at 6.48 µM in test [1] and 3.84 µM in test [2].

Values taken from ChEMBL document CHEMBL1828505, “Bioactive components from the heartwood of Pterocarpus santalinus” (Bioorg Med Chem Lett, 2011).
